Measurements taken from US20090143361A1, “Pyrido[3,2-E]Pyrazines, Process For Preparing The Same, And Their Use As Inhibitors Of Phosphodiesterase 10” (ELBION GMBH, priority 2007, published 2009).
pIC50: −log10 of the molar value.

Molecular target: T1, human recombinant PDE10A (Homo sapiens, UniProt Q9Y233)
T1 construct: made in house; host or cells: SF21 insect cells (baculovirus)
Assay: Inhibition of PDE10, human recombinant PDE10A ([3H]-cAMP SPA)
Format: biochemical
Details: Table 9; read-out: hPDE10 IC50
Protocol: The gene was than inserted into a baculovirus vector, ligated with the baculovirus DNA. The enzyme-protein was expressed in SF21-cells. The enzyme was isolated from these cells by harvesting the cells by a centrifugation at 200 g to collect the cells. The cells were resuspended in 50 mM Tris-HCl/5 mM MgCl2 buffer (pH=7.4) and lysed by a sonication of the cells. The cytosolic PDE10A was obtained by a centrifugation at 48000 g for 1 h in the supernatant and stored at −70° C. PDE10 activity was determined in a one step procedure in microtiterplates. […] Nonspecific activity was tested without the enzyme. The reaction was initiated by addition of the substrate solution and was carried out at 37° C. for 30 minutes. Enzymatic activity was stopped by addition of 25 μl YSi-SPA-beads (Amersham-Pharmacia). One hour later the mixture was measured in a liquid scintillation counter for microtiterplates (Microbeta Trilux). To pipette the incubation mixture a robot Biomek (Fa. Beckman) is used. […] For determination of IC50 values the Hill-plot, 2-parameter-model, was used.

T1 sequence (Q9Y233 1-779 isoform Q9Y233-1): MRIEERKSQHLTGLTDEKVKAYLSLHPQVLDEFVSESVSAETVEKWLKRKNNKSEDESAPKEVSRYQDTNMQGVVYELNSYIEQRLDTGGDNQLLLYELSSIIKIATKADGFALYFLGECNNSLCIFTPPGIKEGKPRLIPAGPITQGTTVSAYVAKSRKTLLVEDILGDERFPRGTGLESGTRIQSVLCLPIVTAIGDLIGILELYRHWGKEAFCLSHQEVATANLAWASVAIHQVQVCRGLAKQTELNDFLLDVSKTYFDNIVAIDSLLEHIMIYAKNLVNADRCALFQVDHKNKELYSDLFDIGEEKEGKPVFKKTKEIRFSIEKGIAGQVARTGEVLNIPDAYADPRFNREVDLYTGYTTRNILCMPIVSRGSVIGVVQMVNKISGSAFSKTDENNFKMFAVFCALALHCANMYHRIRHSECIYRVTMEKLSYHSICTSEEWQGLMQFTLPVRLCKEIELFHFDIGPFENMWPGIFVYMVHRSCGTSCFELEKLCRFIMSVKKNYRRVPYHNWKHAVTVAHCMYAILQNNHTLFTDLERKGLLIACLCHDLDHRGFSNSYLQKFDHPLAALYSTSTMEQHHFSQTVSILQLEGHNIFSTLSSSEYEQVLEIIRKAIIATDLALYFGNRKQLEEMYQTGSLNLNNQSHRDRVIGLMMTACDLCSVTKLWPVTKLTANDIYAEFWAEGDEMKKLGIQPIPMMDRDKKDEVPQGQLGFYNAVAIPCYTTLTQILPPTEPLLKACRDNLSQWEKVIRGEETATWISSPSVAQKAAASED

SMILES	pIC50
Cc1c(F)cccc1-c1nc(C)c2c(C)nc3ccc(OCC4CC4)nc3n12 [Example 136, 2-(cyclopropylmethoxy)-9-(3-fluoro-2-methylphenyl)-6,7-dimethylimidazo[1,5-a]pyrido[3,2-e]pyrazine]	> 8.00
Cc1nc(-c2ccc(Cl)cc2C(F)(F)F)n2c1c(C)nc1ccc(OCC3CC3)nc12 [Example 137, 9-[4-chloro-2-(trifluoromethyl)phenyl]-2-(cyclopropylmethoxy)-6,7-dimethylimidazo[1,5-a]pyrido[3,2-e]pyrazine]	7.00 to 8.00
Cc1nc(-c2ccc(F)cc2Cl)n2c1c(C)nc1ccc(OCC3CC3)nc12 [Example 138, 9-(2-chloro-4-fluorophenyl)-2-(cyclopropylmethoxy)-6,7-dimethylimidazo[1,5-a]pyrido[3,2-e]pyrazine]	> 8.00
COc1ccc(-c2nc(C)c3c(C)nc4ccc(OCC5CC5)nc4n23)cn1 [Example 139, 2-(cyclopropylmethoxy)-9-(6-methoxypyridin-3-yl)-6,7-dimethylimidazo[1,5-a]pyrido[3,2-e]pyrazine]	< 7.00
Cc1ccncc1-c1nc(C)c2c(C)nc3ccc(OCC4CC4)nc3n12 [Example 140, 2-(cyclopropylmethoxy)-6,7-dimethyl-9-(4-methylpyridin-3-yl)imidazo[1,5-a]pyrido[3,2-e]pyrazine]	7.00 to 8.00
Cc1nc(F)ccc1-c1nc(C)c2c(C)nc3ccc(OCC4CC4)nc3n12 [Example 141, 2-(cyclopropylmethoxy)-9-(6-fluoro-2-methylpyridin-3-yl)-6,7-dimethylimidazo[1,5-a]pyrido[3,2-e]pyrazine]	> 8.00
Cc1nc(-c2ccc(C(N)=O)cc2)n2c1c(C)nc1ccc(OCC3CC3)nc12 [Example 142, 4-[2-(cyclopropylmethoxy)-6,7-dimethylimidazo[1,5-a]pyrido[3,2-e]pyrazin-9-yl]benzamide]	> 8.00
Cc1nc(-c2cccc(C(N)=O)c2)n2c1c(C)nc1ccc(OCC3CC3)nc12 [Example 143, 3-[2-(cyclopropylmethoxy)-6,7-dimethylimidazo[1,5-a]pyrido[3,2-e]pyrazin-9-yl]benzamide]	> 8.00
Cc1nc(-c2ccc(F)c(C(N)=O)c2)n2c1c(C)nc1ccc(OCC3CC3)nc12 [Example 144, 5-(2-(cyclopropylmethoxy)-6,7-dimethylimidazo[1,5-a]pyrido[3,2-e]pyrazin-9-yl)-2-fluorobenzamide]	> 8.00
Cc1nc(-c2cc(F)cc(C(N)=O)c2)n2c1c(C)nc1ccc(OCC3CC3)nc12 [Example 145, 3-[2-(cyclopropylmethoxy)-6,7-dimethylimidazo[1,5-a]pyrido[3,2-e]pyrazin-9-yl]-5-fluorobenzamide]	> 8.00
Cc1ccc(C(=O)O)cc1-c1nc(C)c2c(C)nc3ccc(OCC4CC4)nc3n12 [Example 146, 3-[2-(cyclopropylmethoxy)-6,7-dimethylimidazo[1,5-a]pyrido[3,2-e]pyrazin-9-yl]-4-methylbenzoic acid]	< 7.00
Cc1cc(C(=O)O)ccc1-c1nc(C)c2c(C)nc3ccc(OCC4CC4)nc3n12 [Example 147, 4-[2-(cyclopropylmethoxy)-6,7-dimethylimidazo[1,5-a]pyrido[3,2-e]pyrazin-9-yl]-3-methylbenzoic acid]	< 7.00
Cc1nc(-c2cccc(S(N)(=O)=O)c2)n2c1c(C)nc1ccc(OCC3CC3)nc12 [Example 148, 3-[2-(cyclopropylmethoxy)-6,7-dimethylimidazo[1,5-a]pyrido[3,2-e]pyrazin-9-yl]benzenesulfonamide]	< 7.00
Cc1ccc(C(N)=O)cc1-c1nc(C)c2c(C)nc3ccc(OCC4CC4)nc3n12 [Example 149, 3-[2-(cyclopropylmethoxy)-6,7-dimethylimidazo[1,5-a]pyrido[3,2-e]pyrazin-9-yl]-4-methylbenzamide]	> 8.00
Cc1cc(C(N)=O)ccc1-c1nc(C)c2c(C)nc3ccc(OCC4CC4)nc3n12 [Example 150, 4-[2-(cyclopropylmethoxy)-6,7-dimethylimidazo[1,5-a]pyrido[3,2-e]pyrazin-9-yl]-3-methylbenzamide]	> 8.00
Cc1nc(-c2cc(C(N)=O)ccc2F)n2c1c(C)nc1ccc(OCC3CC3)nc12 [Example 151, 3-[2-(cyclopropylmethoxy)-6,7-dimethylimidazo[1,5-a]pyrido[3,2-e]pyrazin-9-yl]-4-fluorobenzamide]	> 8.00
Cc1ccccc1-c1nc(C)c2c(C)nc3ccc(=O)[nH]c3n12 [Example 152, 6,7-Dimethyl-9-o-tolylimidazo[1,5-a]pyrido[3,2-e]pyrazin-2(1H)-one]	7.00 to 8.00
Cc1ccccc1-c1nc(C)c2c(C)nc3ccc(OCC(F)F)nc3n12 [Example 153, 2-(2,2-difluoroethoxy)-6,7-dimethyl-9-(2-methylphenyl)imidazo[1,5-a]pyrido[3,2-e]pyrazine]	> 8.00
Cc1ccccc1-c1nc(C)c2c(C)nc3ccc(OCCF)nc3n12 [Example 154, 2-(2-fluoroethoxy)-6,7-dimethyl-9-(2-methylphenyl)imidazo[1,5-a]pyrido[3,2-e]pyrazine]	> 8.00

SMILES	pIC50
Cc1ccccc1-c1nc(C)c2c(C)nc3ccc(OCC(F)(F)F)nc3n12 [Example 155]	7.00 to 8.00
Cc1ccccc1-c1nc(C)c2c(C)nc3ccc(OCc4ccc(F)cc4)nc3n12 [Example 157, 2-[(4-fluorobenzyl)oxy]-6,7-dimethyl-9-(2-methylphenyl)imidazo[1,5-a]pyrido[3,2-e]pyrazine]	7.00 to 8.00
Cc1ccccc1-c1nc(C)c2c(C)nc3ccc(OCc4ccncc4)nc3n12 [Example 158, 6,7-dimethyl-9-(2-methylphenyl)-2-(pyridin-4-ylmethoxy)imidazo[1,5-a]pyrido[3,2-e]pyrazine]	> 8.00
Cc1ccncc1-c1nc(C)c2c(C)nc3ccc(=O)[nH]c3n12 [Example 159, 6,7-Dimethyl-9-(4-methylpyridin-3-yl)imidazo[1,5-a]pyrido[3,2-e]pyrazin-2(H)-one]	< 7.00
COc1ccc2nc(C)c3c(C)nc(-c4ccncc4OC)n3c2n1 [Example 161, 2-Methoxy-9-(3-methoxypyridin-4-yl)-6,7-dimethylimidazo[1,5-a]pyrido[3,2-e]pyrazine]	7.00 to 8.00
COc1ccc2nc(C#N)c3c(C)nc(-c4ccccc4C)n3c2n1 [Example 165, 2-methoxy-7-methyl-9-(2-methylphenyl)imidazo[1,5-a]pyrido[3,2-e]pyrazine-6-carbonitrile]	7.00 to 8.00
COc1ccc2nc(C#N)c3c(C)nc(-c4cc(C(N)=O)ccc4F)n3c2n1 [Example 166, 3-(6-cyano-2-methoxy-7-methylimidazo[1,5-a]pyrido[3,2-e]pyrazin-9-yl)-4-fluorobenzamide]	> 8.00
COc1ccc2nc(C#N)c3c(C)nc(-c4cccc(C(N)=O)c4)n3c2n1 [Example 167, 3-(6-cyano-2-methoxy-7-methylimidazo[1,5-a]pyrido[3,2-e]pyrazin-9-yl)benzamide]	7.00 to 8.00
COc1ccc2nc(C#N)c3c(C)nc(-c4ccc(F)c(C(N)=O)c4)n3c2n1 [Example 168, 5-(6-cyano-2-methoxy-7-methylimidazo[1,5-a]pyrido[3,2-e]pyrazin-9-yl)-2-fluorobenzamide]	> 8.00
COc1ccc2nc(C#N)c3c(C)nc(-c4cnccc4C)n3c2n1 [Example 169, 2-methoxy-7-methyl-9-(4-methylpyridin-3-yl)imidazo[1,5-a]pyrido[3,2-e]pyrazine-6-carbonitrile]	< 7.00
COc1ccc2nc(C#N)c3c(C)nc(-c4ccncc4)n3c2n1 [Example 170, 2-methoxy-7-methyl-9-pyridin-4-ylimidazo[1,5-a]pyrido[3,2-e]pyrazine-6-carbonitrile]	< 7.00
COc1ccc2nc(C#N)c3c(C)nc(-c4cccnc4)n3c2n1 [Example 171, 2-methoxy-7-methyl-9-pyridin-3-ylimidazo[1,5-a]pyrido[3,2-e]pyrazine-6-carbonitrile]	7.00 to 8.00
COc1ccc2nc(C#N)c3c(C)nc(-c4ccc(F)nc4C)n3c2n1 [Example 172, 9-(6-fluoro-2-methylpyridin-3-yl)-2-methoxy-7-methylimidazo[1,5-a]pyrido[3,2-e]pyrazine-6-carbonitrile]	< 7.00
COc1ccc2nc(C)c3c(C)nc(-c4ccnc(F)c4)n3c2n1 [Example 174, 9-(2-fluoropyridin-4-yl)-2-methoxy-6,7-dimethylimidazo[1,5-a]pyrido[3,2-e]pyrazine]	7.00 to 8.00
COc1ccc2nc(C)c3c(C)nc(-c4cccnc4F)n3c2n1 [Example 175, 9-(2-fluoropyridin-3-yl)-2-methoxy-6,7-dimethylimidazo[1,5-a]pyrido[3,2-e]pyrazine]	> 8.00
COc1ccc2nc(C)c3c(C)nc(-c4ccc5[nH]ccc5c4)n3c2n1 [Example 177, 9-(1H-indol-5-yl)-2-methoxy-6,7-dimethylimidazo[1,5-a]pyrido[3,2-e]pyrazine]	> 8.00
COc1ccc2nc(C)c3c(C)nc(-c4ccc(N(C)C)nc4)n3c2n1 [Example 178, 5-(2-methoxy-6,7-dimethylimidazo[1,5-a]pyrido[3,2-e]pyrazin-9-yl)-N,N-dimethylpyridin-2-amine]	< 7.00
COc1ccc2nc(C)c3c(C)nc(-c4cnn(C)c4)n3c2n1 [Example 180, 2-methoxy-6,7-dimethyl-9-(1-methyl-1H-pyrazol-4-yl)imidazo[1,5-a]pyrido[3,2-e]pyrazine]	7.00 to 8.00
COc1ccc2nc(C)c3c(C)nc(-c4cc[nH]c4)n3c2n1 [Example 181, 2-methoxy-6,7-dimethyl-9-(1H-pyrrol-3-yl)imidazo[1,5-a]pyrido[3,2-e]pyrazine]	7.00 to 8.00
